Results reported in ChEMBL document CHEMBL1147267, “New strongylophorines from the Okinawan marine sponge Petrosia (Strongylophora) corticata” (J Nat Prod, 2003).

Test system: HeLa
Experiment: Cytotoxicity against human HeLa cells
Format: functional, cell-based

Row | SMILES | IC50 [µM]
1 | C[C@]12CCC[C@](C)(C=O)[C@@H]1CC[C@]1(C)[C@@H]2CC[C@]2(C)Oc3ccc(O)cc3C[C@@H]12 [Strongylophorin-4] | 50.5
2 | C[C@]12CCC[C@](C)(C(=O)O)[C@@H]1CC[C@]1(C)[C@@H]2CC[C@]2(C)Oc3ccc(O)cc3C[C@@H]12 [Strongylophorin-3] | 45.2
3 | COc1ccc2c(c1)C[C@H]1[C@]3(C)CC[C@@H]4[C@](C)(CCC[C@]4(C)C(=O)O)[C@H]3CC[C@]1(C)O2 [Strongylophorine-1] | 49.1
4 | CC1(C)CCC[C@@]2(C=O)[C@H]1CC[C@]1(C)[C@@H]2CC[C@]2(C)Oc3ccc(O)cc3C[C@@H]12 [Strongylophorine-24] | > 100
5 | CC1(C)CCC[C@@]2(CO)[C@H]1CC[C@]1(C)[C@@H]2CC[C@]2(C)Oc3ccc(O)cc3C[C@@H]12 [Strongylophorin-23] | 62
6 | CC1(C)CCC[C@]2(C)[C@H]3CC[C@]4(C)Oc5ccc(O)cc5C[C@H]4[C@]3(C)CC[C@@H]12 [Strongylophorin-22] | 26.6
7 | C[C@@]12CC[C@@H]3[C@]4(CCC[C@]3(C)C(=O)OC4)[C@H]1CC[C@]1(C)Oc3ccc(O)cc3C[C@@H]21 [STRONGYLOPHORIN 2] | > 100
